Reference: patent US20110280770A1, “Nanogenerator” (priority 2010, published 2011)
Non-standard residues stand in square brackets, D forms with d. Residues, ends and D or L forms follow the SMILES beside them. *: point of attachment. NOTA = O=C(O)CN1CCN(CC(=O)O)CCN(CC(=O)*)CC1

What was measured:
B16/F1 flank tumor [1] = assay: PET imaging study in tumor bearing mice (microPET-Focus); format: in vivo; conditions: static imaging for 20 min starting 10 min post administration
Description: Pilot Animal Studies using ^62Cu labeled Peptide: Biodistribution and PET studies of radiolabeled ^62Cu-NOTA-2-GGG-Arg11 were performed in B16/F1 flank tumor bearing C57 mice utilizing the newly designed nanogenerator with the 5 μg lyophilized peptide kits. Fourteen male and female, 6-8 week old mice were injected with B16/F1 cells (1,000,000/mouse) in the flanks or shoulders while anesthetized to induce solid tumors. B16/F1 solid tumors appeared in 14 days post inoculation. […] Animals in the biodistribution studies were sacrificed by cervical dislocation followed by pneumothorax at 10, 20, and 40 min post administration, major organs removed, weighed, and radioactivity quantitated in a windowed gamma counter.
A preliminary PET imaging study was also performed, in which two anesthetized animals were used for PET imaging studies starting at 10 min post administration of the radiolabeled peptide and statically imaged with a microPET-Focus scanner (Siemens Preclinical Solutions, Knoxville, Tenn.) for 20 min (see FIG. 9). […] Background levels of radioactivity in the blood and major organs and tissues were low, except for the kidneys.

B16/F1 flank tumor [2] = assay: Biodistribution in B16/F1 flank tumor bearing C57 mice; format: in vivo; conditions: for Tumor uptake: tail vein
Description: (§1) Pilot Animal Studies using ^62Cu labeled Peptide: Biodistribution and PET studies of radiolabeled ^62Cu-NOTA-2-GGG-Arg11 were performed in B16/F1 flank tumor bearing C57 mice utilizing the newly designed nanogenerator with the 5 μg lyophilized peptide kits. Fourteen male and female, 6-8 week old mice were injected with B16/F1 cells (1,000,000/mouse) in the flanks or shoulders while anesthetized to induce solid tumors. B16/F1 solid tumors appeared in 14 days post inoculation. Radiolabeled peptides were injected through the tail vein at an average of 0.27 mCi per dose administration for biodistribution studies and an average of 0.7 mCi for imaging, achieving specific activities of 111.2-140.4 Ci/μmol (mean=122.1 Ci/μmol), and an average of 94.0% radiolabeling yield without a purification step after synthesis. Animals in the biodistribution studies were sacrificed by cervical dislocation followed by pneumothorax at 10, 20, and 40 min post administration, major organs removed, weighed, and radioactivity quantitated in a windowed gamma counter.
(§2) Uptake was measured for the tumor, blood, heart, lung, liver, small intestine, intestine, kidneys, muscle, carcass and paper, and skin. Tumor uptake was rapid, reaching 4.65±0.48 ID/g and 9.43±2.69% ID/g at 20 and 40 min post injection, respectively.

[3] = as above; format: in vivo; conditions: both sexes, C57, mouse, tumor (B16/F1 flank tumor), iv, 0.27 mCi, total radioactivity; 40 min post injection; tail vein
Description: as §1, §2

melanoma cells = assay: In vitro cell binding of radiolabeled peptide; format: cell-based; conditions: 1 million cells per well, 320,000 cpm; maximum at 10 min, constant for 50 min
Description: Tissue culture wells containing 1 million cells each were incubated with 320,000 cpm of ^62Cu-NOTA-2-GGG-Arg11 for various times between 5 min and 50 min then washed and counted. […] In vitro cell binding of 10% for the ^62Cu-NOTA-2-GGG-Arg11 peptide is similar to then in vitro cell uptake percentages for HPLC purified.

melanocortin-1 receptor = target: T1, melanocortin-1 receptor (Mus musculus, UniProt Q01727); conditions: comparison value for the optimal peptide construct for Cu-64; cited from earlier work
T1 construct: endogenous in cells; host or cells: B16/F1 cells
T1 sequence (Q01727 whole entry): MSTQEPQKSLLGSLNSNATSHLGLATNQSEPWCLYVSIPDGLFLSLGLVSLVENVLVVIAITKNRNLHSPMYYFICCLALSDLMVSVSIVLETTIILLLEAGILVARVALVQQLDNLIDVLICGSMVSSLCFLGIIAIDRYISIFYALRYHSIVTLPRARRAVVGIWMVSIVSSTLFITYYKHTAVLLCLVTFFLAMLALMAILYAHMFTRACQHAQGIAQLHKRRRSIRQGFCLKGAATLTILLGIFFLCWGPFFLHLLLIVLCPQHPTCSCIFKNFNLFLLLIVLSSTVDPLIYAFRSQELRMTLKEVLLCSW

Molecule | PET tumor visualization (B16/F1 flank tumor [1]) | Tumor uptake in the blocked mice relative to radiolabeled peptide alone (B16/F1 flank tumor [2]; 20 min post injection, 20 μg non-labeled NDP-MSH co-injected) | Tumor uptake (B16/F1 flank tumor [2]; 20 min post injection) | Tumor uptake (B16/F1 flank tumor [2]; 40 min post injection) | Clearance and route of excretion (B16/F1 flank tumor [2]; biodistribution at 10, 20 and 40 min) | tissue uptake at 40 min [3] | Maximum cell uptake of the radiolabeled peptide (melanoma cells) | IC50 (melanocortin-1 receptor)
CC(C)[C@H](NC(=O)[C@@H]1CCCN1C(=O)[C@H](CCCNC(=N)N)NC(=O)[C@H](CS)NC(=O)[C@H](Cc1c[nH]c2ccccc12)NC(=O)[C@H](CCCNC(=N)N)NC(=O)[C@@H](Cc1ccccc1)NC(=O)[C@H](Cc1c[nH]cn1)NC(=O)[C@H](CCC(=O)O)NC(=O)[C@H](CS)NC(=O)[C@H](CS)NC(=O)CNC(=O)CNC(=O)CNC(=O)CN1CCN(CC(=O)O)CCN(CC(=O)O)CC1)C(N)=O [^62Cu-NOTA-2-GGG-Arg11, metal not drawn] ({NOTA}-GGGCCEH[dF]RWCRPV-NH2) | tumor is clearly visualized | 0.55 % of tumor uptake in the mice receiving the radiolabeled peptide alone | 4.65 ± 0.48 %ID/g | 9.43±2.69 % ID/g | clearance from the blood and non-target tissues except for the kidneys, which was the primary route of excretion | 9.43 ± 2.69 %ID/g | 10% | 
CBTE2A-ReCCMSH [CBTE2A conjugated ReCCMSH peptide, the optimal peptide construct for Cu-64] |  |  |  |  |  |  |  | 5.4 nM
